In patent publication US20240351986A1, “UREA COMPOUND CONTAINING 2-HETEROAROMATIC RING SUBSTITUTION, PREPARATION METHOD THEREFOR AND USE THEREOF” (SHANGHAI INSTITUTE OF MATERIA MEDICA, CHINESE ACADEMY OF …, priority 2021, published 2024):
Structures can show the parent of a compound that is named as a salt.

Biological target: T1, Recombinant human CDK9/cyclin T1 (Homo sapiens, UniProt P50750)
T1 construct: purchased Carna bioscience 04-110
Experiment: CDK9 enzyme inhibitory activity (ADP-Glo kinase assay)
Format: biochemical
Conditions: CDK9 enzyme activity, average of two independent repeats; for inhibition at 0.01 µM / Inhibition rate at different concentrations (%) 10 nM: compound 10 nM; for inhibition at 0.01 µM: read-out: Inhibition rate at different concentrations (%) 10 nM; for inhibition at 0.1 µM: read-out: Inhibition rate at different concentrations (%) 100 nM; for Inhibition rate at different concentrations (%) 10 nM: 0.01 µM
Protocol: Experimental method: Recombinant human CDK9/cyclin T1 (Carna bioscience, Cat #04-110) was diluted with dilution buffer (20 mM Tris HCl (pH 7.5), 0.02% Triton X-100, 0.01% BSA, 2 mM DTT, 0.5 mM Na3VO4, 10% Glycerol) to […], the substrates CDK7/9 tide (ThermoFisher, Cat #PV5090) and ATP (sigmaaldrich, Cat #A1852) were diluted with assay buffer (25 mM Tris HCl (pH7.5), 10 mM MgCl2, 0.5 mM EGTA (pH 8), 0.5 mM Na3VO4, 5 mMb-glycerol phosphate, 0.1% Triton X-100, 2.5 mM DTT) to final concentrations of 100 μM and […] respectively, aliquot and set aside. 2 μl of diluted recombinant human CDK9/cyclin T1, 1 μl of test compound, and 2 μl of diluted substrate CDK7/9 tide containing ATP were added to the 384-well plate. […] The positive control was the well in which enzyme and substrate were co-incubated, and the negative control was the well in which dilution buffer and substrate were co-incubated. The inhibition rate was calculated according to the following formula.

T1 sequence (P50750 whole entry): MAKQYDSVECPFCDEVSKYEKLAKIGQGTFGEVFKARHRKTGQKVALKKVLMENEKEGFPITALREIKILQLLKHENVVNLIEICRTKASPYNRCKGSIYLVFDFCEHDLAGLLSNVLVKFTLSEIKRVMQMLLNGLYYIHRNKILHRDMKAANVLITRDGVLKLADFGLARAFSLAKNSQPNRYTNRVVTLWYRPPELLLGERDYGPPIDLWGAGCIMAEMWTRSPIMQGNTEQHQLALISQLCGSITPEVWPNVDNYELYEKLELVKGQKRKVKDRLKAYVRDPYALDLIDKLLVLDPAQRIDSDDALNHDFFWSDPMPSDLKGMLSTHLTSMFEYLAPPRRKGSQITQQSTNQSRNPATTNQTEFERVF
T1 sequence (O60563 whole entry partner): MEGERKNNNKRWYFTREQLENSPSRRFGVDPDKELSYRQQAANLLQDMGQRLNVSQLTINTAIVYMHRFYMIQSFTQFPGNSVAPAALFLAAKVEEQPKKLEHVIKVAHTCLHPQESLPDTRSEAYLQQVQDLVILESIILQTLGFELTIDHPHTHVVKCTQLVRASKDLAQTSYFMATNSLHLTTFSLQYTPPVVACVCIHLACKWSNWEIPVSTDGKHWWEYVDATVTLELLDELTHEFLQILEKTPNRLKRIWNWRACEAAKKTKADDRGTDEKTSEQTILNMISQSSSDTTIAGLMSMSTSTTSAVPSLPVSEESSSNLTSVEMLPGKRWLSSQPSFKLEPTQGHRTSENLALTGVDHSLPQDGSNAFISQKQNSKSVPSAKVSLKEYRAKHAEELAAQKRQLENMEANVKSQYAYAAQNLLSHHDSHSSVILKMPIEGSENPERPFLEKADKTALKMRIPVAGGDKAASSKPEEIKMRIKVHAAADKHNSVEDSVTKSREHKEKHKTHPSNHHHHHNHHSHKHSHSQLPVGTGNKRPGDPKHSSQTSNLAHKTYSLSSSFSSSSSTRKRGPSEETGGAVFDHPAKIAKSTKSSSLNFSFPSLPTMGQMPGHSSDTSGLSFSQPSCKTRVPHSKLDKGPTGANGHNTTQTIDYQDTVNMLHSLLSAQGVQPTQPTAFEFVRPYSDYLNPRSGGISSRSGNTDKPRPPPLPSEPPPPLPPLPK

Row | Compound | inhibition at 0.01 µM | inhibition at 0.1 µM (compound 100 nM) | Inhibition rate at different concentrations (%) 10 nM | Inhibition rate at different concentrations (%) 100 nM (compound 100 nM, 0.1 µM)
1 | COc1cc(F)ccc1-c1cc(NC(=O)NC2CCC(NC(C)=O)CC2)ncc1C#N (centres unmarked) [Example 32, N-((1r,4r)-4-(3-(5-cyano-4-(4-fluoro-2-methoxyphenyl)pyridin-2-yl)ureido)cyclohexyl)acetamide] | 18.1% | 59.8% | – | –
2 | NC1CCC(NC(=O)Nc2cc(-c3ccc(F)cc3OC(F)(F)F)ccn2)CC1 (centres unmarked) [Example 12, 1-((1r,4r)-4-aminocyclohexyl)-3-(4-(4-fluoro-2-trifluoromethoxyphenyl)pyridin-2-yl) urea] | 19.2% | 69.1% | – | –
3 | CC(C)c1c2cc(-c3ccnc(NC(=O)NC4CCC(N)CC4)c3)ccc2nn1C (centres unmarked) [Example 9, 1-((1r,4r)-4-aminocyclohexyl)-3-(4-(3-isopropyl-2-methyl-2H-indazol-5-yl)pyridin-2-yl)urea] | 23% | 55.1% | – | –
4 | COc1cc(F)ccc1-c1ccnc(NC(=S)NC2CCC(N)CC2)c1 (centres unmarked) [Example 38, 1-((1r,4r)-4-aminocyclohexyl)-3-(4-(4-fluoro-2-methoxyphenyl)pyridin-2-yl)thiourea] | 51% | 27% | – | –
5 | Cc1c(-c2cc(NC(=O)NC3CCC(N)CC3)ncc2Cl)cnn1C (centres unmarked) [Example 42, 1-((1r,4r)-4-aminocyclohexyl)-3-(5-chloro-4-(1,5-dimethyl-1H-pyrazol-4-yl)pyridin-2-yl)urea] | 44% | 75% | – | –
6 | CC1(C)Cc2c(-c3cc(NC(=O)NC4CCC(N)CC4)ncc3Cl)cnn2C1 (centres unmarked) [Example 44, 1-((1r,4r)-4-aminocyclohexyl)-3-(5-chloro-4-(5,5-dimethyl-5,6-dihydro-4H-pyrrole[1,2-b]pyrazole-3-yl)pyridin-2-yl)urea] | – | 96% | 83.0% | –
7 | COc1cc(F)ccc1-c1ccnc(NC(=O)NC2CCC(NC(C)=O)CC2)n1 (centres unmarked) [Example 41, N-((1r,4r)-4-(3-(4-(4-fluoro-2-methoxyphenyl)pyrimidin-2-yl)ureido)cyclohexyl)acetamide] | 38.1% | 70.2% | – | –
8 | COc1cc(F)ccc1-c1ccnc(NC(=O)NC2CC(N)C2)c1 (centres unmarked) [Example 35, 1-((1r,3r)-3-aminocyclobutyl)-3-(4-(4-fluoro-2-methoxyphenyl)pyridin-2-yl)urea] | 30% | 62.7% | – | –
9 | COc1cc(F)ccc1-c1ccnc(NC(=O)NC2CC(O)C2)c1 (centres unmarked) [Example 36, 1-(4-(4-fluoro-2-methoxyphenyl)pyridin-2-yl)-3((1r,3r)-3-hydroxycyclobutyl)urea] | 16.5% | 62.8% | – | –
10 | COc1cc(F)ccc1-c1cc(NC(=O)NC2CCC(NC(C)C)CC2)ncc1Cl (centres unmarked) [Example 23, 1-(5-chloro-4-(4-fluoro-2-methoxyphenyl)pyridin-2-yl)-3-((1r,4r)-4-(isopropylamino)cyclohexyl)urea] | 37.2% | 87.4% | – | –
11 | COc1cc(F)ccc1-c1cc(NC(=O)NC2CCC(N)CC2)ncc1Cl (centres unmarked) [Example 18, 1-((1r,4r)-4-aminocyclohexyl)-3-(5-chloro-4-(4-fluoro-2-methoxyphenyl)pyridin-2-yl)urea] | 84% | 86% | – | –
12 | COc1cc(F)ccc1-c1cc(NC(=O)NC2CCC(NCCN(C)C)CC2)ncc1Cl (centres unmarked) [Example 27, 1-(5-chloro-4-(4-fluoro-2-methoxyphenyl)pyridin-2-yl)-3-((1r,4r)-4-((2-(dimethylamino)ethyl)amino)cyclohexyl)urea] | 44.2% | 78.4% | – | –

The next lines start with the values.

Row | inhibition at 0.01 µM | inhibition at 0.1 µM (compound 100 nM) | Inhibition rate at different concentrations (%) 10 nM | Inhibition rate at different concentrations (%) 100 nM (compound 100 nM, 0.1 µM) | Compound
13 | 53% | 87% | – | – | CC(=O)NC1CCCC(NC(=O)Nc2cc(-c3cnn4c3CC(C)(C)C4)c(Cl)cn2)C1 (centres unmarked) [Example 79, N-(3-(3-(5-chloro-4-(5,5-dimethyl-5,6-dihydro-4H-pyrrolo[1,2-b]pyrazol-3-yl)pyridin-2-yl)ureido)cyclohexyl)acetamide]
14 | 28% | 56% | – | – | CC1(C)Cc2c(-c3cc(NC(=O)NC4CCC(NC(=O)OC(C)(C)C)CC4)ncc3Cl)cnn2C1 (centres unmarked) [Example 64, tert-butyl (1s,4s)-4-(3-(5-chloro-4-(5,5-dimethyl-5,6-dihydro-4H-pyrrolo [1,2-b]pyrazol-3-yl)pyridin-2-yl)ureido)cyclohexylcarbamate]
15 | 58.3% | 91.5% | – | – | CC(=O)NC1CCC(NC(=O)Nc2cc(-c3cnn4c3CC3(CC3)C4)c(Cl)cn2)CC1 (centres unmarked) [Example 81, N-((1r,4r)-4-(3-(5-chloro-4-(4′H,6′H-spiro[cyclopropane-1,5′-pyrrolo[1,2-b]pyrazole]-3′-yl)pyridin-2-yl)ureido)cyclohexyl)acetamide]
16 | 44% | 89% | – | – | CC1(C)Cc2c(-c3cc(NC(=O)NC4CCNCC4)ncc3Cl)cnn2C1 [Example 68, 1-(5-chloro-4-(5,5-dimethyl-5,6-dihydro-4H-pyrrolo[1,2-b]pyrazol-3-yl)pyridin-2-yl)-3-(piperidin-4-yl)urea]
17 | 50.1% | 88.3% | – | – | CC(=O)NC1CCC(NC(=O)Nc2cc(-c3cnc4n3CC(C)(C)C4)c(Cl)cn2)CC1 (centres unmarked) [Example 86, N-((1r,4r)-4-(3-(5-chloro-4-(6,6-dimethyl-6,7-dihydro-5H-pyrrolo [1,2-a]imidazol-3-)pyridin-2-yl)ureido)cyclohexyl)acetamide]
18 | 58% | 89.2% | – | – | CC1(C)Cc2c(-c3cc(NC(=O)NC4CCC(NC(=O)C5CC5)CC4)ncc3Cl)cnn2C1 (centres unmarked) [Example 49]
19 | 25% | 91% | – | – | CC1(C)Cc2c(-c3cc(NC(=O)NC4CCCC(NC(=O)OC(C)(C)C)C4)ncc3Cl)cnn2C1 (centres unmarked) [Example 76, tert-butyl (3-(3-(5-chloro-4-(5,5-dimethyl-5,6-dihydro-4H-pyrrolo[1,2-b]pyrazol-3-yl)pyridin-2-yl)ureido)cyclohexyl)carbamate]
20 | 40.2% | 69.3% | – | – | CC1(C)Cc2c(-c3cc(NC(=O)NC4CCC(NC5COC5)CC4)ncc3Cl)cnn2C1 (centres unmarked) [Example 63]
21 | 63% | 88% | – | – | COCC[N+](C)(C)C1CCC(NC(=O)Nc2cc(-c3cnn4c3CC(C)(C)C4)c(Cl)cn2)CC1 (centres unmarked) [Example 91, (1r,4r)-4-(3-(5-chloro-4-(5,5-dimethyl-5,6-dihydro-4H-pyrrolo[1,2-b]pyrazol-3-yl)pyridin-2-yl)ureido)-N-(2-methoxyethyl)-N,N-dimethylcyclohexyl-1-ammonium salt]
22 | 40.3% | 59.8% | – | – | CC(=O)NC1CCC(NC(=O)Nc2cc(-c3cnn4c3CC(C)(C)C4)c(C3CC3)cn2)CC1 (centres unmarked) [Example 53, N-((1r,4r)-4-(3-(4-(5,5-dimethyl-5,6-dihydro-4H-pyrrolo[1,2-b]pyrazol-3-yl)-5-cyclopropylpyridin-2-yl)ureido)cyclohexyl)acetamide]
23 | 51% | 83% | – | – | CC(=O)NC1CC(NC(=O)Nc2cc(-c3cnn4c3CC(C)(C)C4)c(Cl)cn2)C1 (centres unmarked) [Example 75, N-((1r,3r)-3-(3-(5-chloro-4-(5,5-dimethyl-5,6-dihydro-4H-pyrrolo[1,2-b]pyrazol-3-yl)pyridin-2-yl)ureido)cyclobutyl)acetamide]
24 | 53.2% | 95.1% | – | – | CC1(C)Cc2c(-c3cc(NC(=O)NC4CCC(NC(=O)C5COC5)CC4)ncc3Cl)cnn2C1 (centres unmarked) [Example 50, N-((1r,4r)-4-(3-(5-chloro-4-(5,5-dimethyl-5,6-dihydro-4H-pyrrolo[1,2-b]pyrazol-3-yl)pyridin-2-yl)ureido)cyclohexyl) oxetane-3-carboxamide]
25 | – | – | 58.0% | 84.0% | CC1(C)Cc2c(-c3cc(NC(=O)NC4CCC(N)CC4)ncc3Cl)cnn2C1 (centres unmarked) [Example 65, 1-((1s,4s)-4-aminocyclohexyl)-3-(5-chloro-4-(5,5-dimethyl-5,6-dihydro-4H-pyrrolo[1,2-b]pyrazol-3-yl)pyridin-2-yl)urea]
26 | 60.3% | 92% | – | – | CC1(C)Cc2c(-c3cc(NC(=O)NC4CCCC(N)C4)ncc3Cl)cnn2C1 (centres unmarked) [Example 77, 1-(3-aminocyclohexyl)-3-(5-chloro-4-(5,5-dimethyl-5,6-dihydro-4H-pyrrolo[1,2-b]pyrazol-3-yl)pyridin-2-yl)urea]
27 | 39.7% | 78.5% | – | – | CC(=O)NC1CCC(NC(=O)Nc2cc(-c3cnn4c3CC(C)(C)C4)c(C)cn2)CC1 (centres unmarked) [Example 52, N-((1r,4r)-4-(3-(4-(5,5-dimethyl-5,6-dihydro-4H-pyrrolo[1,2-b]pyrazol-3-yl-S-methylpyridin-2-yl)ureido)cyclohexyl)acetamide]
28 | 28.9% | 72% | – | – | CC(=O)NC1CCC(NC(=O)Nc2cc(-c3cnc(C)n3C(C)C)c(Cl)cn2)CC1 (centres unmarked) [Example 85, N-((1r,4r)-4-(3-(5-chloro-4-(1-isopropyl-2-methyl-1H-imidazol-5-yl)pyridin-2-yl)ureido)cyclohexyl)acetamide]
